The values that follow come from patent publication US12577226B2, “Compounds for treating Huntington's disease” (PTC THERAPEUTICS, INC., priority 2019, dated 2026).

Structures are written as SMILES. Some results are limits rather than exact numbers.

This assay concerns Endogenous Huntingtin Protein (capture with MW1 (expanded polyglutamine) or MAB2166 antibody). The assay is described as follows: Endogenous Huntingtin Protein Assay (ELISA-based Meso Scale Discovery electrochemiluminescence assay). Format: cell-based. As to conditions: MSD electrochemiluminescence platform. Put shortly:
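MSD electrochemiluminescence sandwich immunoassay: plates coated with 1 μg/mL MW1 or MAB2166 capture antibody, samples incubated overnight at 4 °C. Detection with rabbit monoclonal #5656S then SULFO-TAG anti-rabbit (each 0.25 μg/mL, 1 h RT).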
(In general: In an ELISA, binding on a coated surface is turned into a signal by an enzyme label.)
For orientation: IC50 means the concentration that inhibits the measured activity by half. A lower IC50 goes with greater potency. `[2H]C([2H])([2H])Oc1cc(-c2cnc(-c3ccc(N[C@@H]4CC(C)(C)NC(C)(C)[C@@H]4F)nn3)c(O)c2)ncn1` [Compound 25, 2-(6-{[(3R,4R)-3-fluoro-2,2,6,6-tetramethylpiperidin-4-yl]amino}pyridazin-3-yl)-5-{6-[(^2H3)methyloxy]pyrimidin-4-yl}pyridin-3-ol] returned an IC50 not above 100 nM.

The molecule `CC1(C)CC(Oc2ccc(-c3ncc(-c4cn[nH]c4F)cc3O)nn2)CC2(CC2)N1` (centres unmarked) [Compound 26, 2-{6-[(5,5-dimethyl-4-azaspiro[2.5]octan-7-yl)oxy]pyridazin-3-yl}-5-(5-fluoro-1H-pyrazol-4-yl)pyridin-3-ol] gave an IC50 not above 100 nM.

Turning to `CC1(C)CC(Oc2ccc(-c3ncc(-c4cn[nH]c4)cc3O)nn2)CC2(CC2)N1` (centres unmarked) [Compound 27, 2-{6-[(5,5-dimethyl-4-azaspiro[2.5]octan-7-yl)oxy]pyridazin-3-yl}-5-(1H-pyrazol-4-yl)pyridin-3-ol], the IC50 was not above 100 nM.

In the case of `CC1(C)CC(Oc2ccc(-c3ncc(-c4ncco4)cc3O)nn2)CC2(CC2)N1` (centres unmarked) [Compound 28, 2-{6-[(5,5-dimethyl-4-azaspiro[2.5]octan-7-yl)oxy]pyridazin-3-yl}-5-(1,3-oxazol-2-yl)pyridin-3-ol], the IC50 was not above 100 nM.

In the case of `[2H]C([2H])([2H])n1cc(-c2cnc(-c3ccc(N4CCC(NC(C)(C)C)C4)nn3)c(O)c2)cn1` (centres unmarked) [Compound 29, 2-{6-[3-(tert-butylamino)pyrrolidin-1-yl]pyridazin-3-yl}-5-[1-(^2H3)methyl-1H-pyrazol-4-yl]pyridin-3-ol], the IC50 was not above 100 nM.

The molecule `COc1cc(-c2cnc(-c3ccc(N4CC[C@@H](NC(C)(C)C)C4)nn3)c(O)c2)ncn1` [Compound 30, 2-{6-[(3R)-3-(tert-butylamino)pyrrolidin-1-yl]pyridazin-3-yl}-5-(6-methoxypyrimidin-4-yl)pyridin-3-ol] came in with an IC50 not above 100 nM.

For the molecule `Oc1cc(-c2cn[nH]c2)cnc1-c1ccc(OC2CC3(CC3)NC3(CC3)C2)nn1` (centres unmarked) [Compound 31, 2-{6-[(4-azadispiro[2.1.2^5.3^3]decan-9-yl)oxy]pyridazin-3-yl}-5-(1H-pyrazol-4-yl)pyridin-3-ol], the half-maximal inhibitory concentration (IC50) was 100 to 500 nM.

In turn, `C[C@]12CC[C@](C)(C[C@@H](Oc3ccc(-c4ncc(-n5nccn5)cc4O)nn3)C1)N2` [Compound 32, 2-(6-{[(1R,3s,5S)-1,5-dimethyl-8-azabicyclo[3.2.1]octan-3-yl]oxy}pyridazin-3-yl)-5-(2H-1,2,3-triazol-2-yl)pyridin-3-ol and 2-(6-{[(1S,3r,5R)-1,5-dimethyl-8-azabicyclo[3.2.1]octan-3-yl]oxy}pyridazin-3-yl)-5-(2H-1,2,3-triazol-2-yl)pyridin-3-ol] registered a half-inhibitory concentration (IC50) not above 100 nM.

`[2H]C([2H])([2H])n1cc(-c2cnc(-c3ccc(O[C@H]4C[C@]5(C)CC[C@](C)(C4)N5)nn3)c(O)c2)cn1` [Compound 33, 2-(6-{[(1R,3s,5S)-1,5-dimethyl-8-azabicyclo[3.2.1]octan-3-yl]oxy}pyridazin-3-yl)-5-[1-(^2H3)methyl-1H-pyrazol-4-yl]pyridin-3-ol and 2-(6-{[(1S,3r,5R)-1,5-dimethyl-8-azabicyclo[3.2.1]octan-3-yl]oxy}pyridazin-3-yl)-5-[1-(^2H3)methyl-1H-pyrazol-4-yl]pyridin-3-ol] returned an IC50 not above 100 nM.

`C[C@]12CC[C@](C)(C[C@@H](Oc3ccc(-c4ncc(-c5cncnc5)cc4O)nn3)C1)N2` [Compound 36, 2-(6-{[(1R,3s,5S)-1,5-dimethyl-8-azabicyclo[3.2.1]octan-3-yl]oxy}pyridazin-3-yl)-5-(pyrimidin-5-yl)pyridin-3-ol and 2-(6-{[(1S,3r,5R)-1,5-dimethyl-8-azabicyclo[3.2.1]octan-3-yl]oxy}pyridazin-3-yl)-5-(pyrimidin-5-yl)pyridin-3-ol] came in with an IC50 of 500 to 1000 nM.

Molecule `Cc1cn2nc(-c3cnc(-c4ccc(O[C@H]5CC(C)(C)NC(C)(C)[C@H]5F)nn4)c(O)c3)cc(C)c2n1` [Compound 38, 5-(2,8-dimethylimidazo[1,2-b]pyridazin-6-yl)-2-(6-{ [(3R,4S)-3-fluoro-2,2,6,6-tetramethylpiperidin-4-yl]oxy}pyridazin-3-yl)pyridin-3-ol or 5-(2,8-dimethylimidazo[1,2-b]pyridazin-6-yl)-2-(6-{ [(3S,4R)-3-fluoro-2,2,6,6-tetramethylpiperidin-4-yl]oxy}pyridazin-3-yl)pyridin-3-ol] displayed an IC50 not above 100 nM.

Turning to `CC1(C)C[C@@H](Oc2ccc(-c3ncc(-c4cn[nH]c4F)cc3O)nn2)[C@@H](F)C(C)(C)N1` [Compound 40, 5-(5-fluoro-1H-pyrazol-4-yl)-2-(6-{[(3S,4R)-3-fluoro-2,2,6,6-tetramethylpiperidin-4-yl]oxy}pyridazin-3-yl)pyridin-3-ol], the IC50 is not above 100 nM.

With `Cc1cn2nc(-c3cnc(-c4ccc(OC5CC(C)(C)NC(C)(C)C5)nn4)c(O)c3)cc(C)c2n1` [Compound 50, 5-(2,8-dimethylimidazo[1,2-b]pyridazin-6-yl)-2-{6-[(2,2,6,6-tetramethylpiperidin-4-yl)oxy]pyridazin-3-yl}pyridin-3-ol], the IC50 is not above 100 nM.

With `Cn1cc2cc(-c3cnc(-c4ccc(OC5CC(C)(C)NC(C)(C)C5)nn4)c(O)c3)cc(F)c2n1` [Compound 52, 5-(7-fluoro-2-methyl-2H-indazol-5-yl)-2-{6-[(2,2,6,6-tetramethylpiperidin-4-yl)oxy]pyridazin-3-yl}pyridin-3-ol], the IC50 is not above 100 nM.

Turning to `[2H]C([2H])([2H])n1cc(-c2cnc(-c3ccc(N(C)C4CC(C)(C)NC5(CC5)C4)nn3)c(O)c2)cn1` (centres unmarked) [Compound 53, 2-{6-[(5,5-dimethyl-4-azaspiro[2.5]octan-7-yl)(methyl)amino]pyridazin-3-yl}-5-[1-(^2H3)methyl-1H-pyrazol-4-yl]pyridin-3-ol], the half-inhibitory concentration (IC50) was not above 100 nM.

`CC1(C)CC(Oc2ccc(-c3ncc(-n4cncn4)cc3O)nn2)CC(C)(C)N1` [Compound 61, 2-{6-[(2,2,6,6-tetramethylpiperidin-4-yl)oxy]pyridazin-3-yl}-5-(1H-1,2,4-triazol-1-yl)pyridin-3-ol] came in with an IC50 not above 100 nM.

Take `Cn1cc2cc(-c3cnc(-c4ccc(OC5CC(C)(C)NC(C)(C)C5)nn4)c(O)c3)cc(C#N)c2n1` [Compound 62, 5-[6-(6-{[2,2,6,6-tetramethylpiperidin-4-yl]oxy}pyridazin-3-yl)-5-hydroxypyridin-3-yl]-2-methyl-2H-indazole-7-carbonitrile]: the IC50 is not above 100 nM.

Molecule `CC1(C)CC(Oc2ccc(-c3ncc(-n4ccnn4)cc3O)nn2)CC(C)(C)N1` [Compound 63, 2-{6-[(2,2,6,6-tetramethylpiperidin-4-yl)oxy]pyridazin-3-yl}-5-(1H-1,2,3-triazol-1-yl)pyridin-3-ol] had an IC50 of 100 to 500 nM.

Molecule `CN(c1ccc(-c2ncc(-c3cc(F)c4nn(C)cc4c3)cc2O)nn1)C1CC(C)(C)NC2(CC2)C1` (centres unmarked) [Compound 64, 2-{6-[(5,5-dimethyl-4-azaspiro[2.5]octan-7-yl)(methyl)amino]pyridazin-3-yl}-5-(7-fluoro-2-methyl-2H-indazol-5-yl)pyridin-3-ol] registered an IC50 not above 100 nM.

For `CC1(C)CC(Oc2ccc(-c3ncc(-c4ccc5nccn5n4)cc3O)nn2)CC(C)(C)N1` [Compound 65, 5-(imidazo[1,2-b]pyridazin-6-yl)-2-{6-[(2,2,6,6-tetramethylpiperidin-4-yl)oxy]pyridazin-3-yl}pyridin-3-ol], the IC50 is not above 100 nM.
